Results on 14 molecules are retold here after PubChem BioAssay (NCI).

For orientation: TGI means the concentration giving total growth inhibition. A lower TGI goes with greater sensitivity of the cells.

Some test systems named below: 786-0 renal; A498 renal; HCT-15 colon; HT29 colon; LOX IMVI melanoma; M14 melanoma; MCF7 breast; MDA-MB-231 breast; MOLT-4 leukemia; PC-3 prostate; SN12C renal.
Experiment in all cases: DTP human tumour cell line panel, 48 h

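Interpolation was linear, between the two tested concentrations surrounding the appropriate level; five concentrations were tested over 48 hours in 96-well plates. TGI denotes the concentration required for complete inhibition of growth.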

`CC1(C2(C)OC(=O)c3ccccc32)OC(=O)c2ccccc21` (centres undefined): the TGI with 786-0 renal, with A498 renal, with HCT-15 colon, in the assay with HT29 colon, with LOX IMVI melanoma and in the assay with M14 melanoma was above 100 µM in each case. Besides, the TGI in the assay with MCF7 breast, in the assay on MDA-MB-231 breast, with MOLT-4 leukemia, in the assay with PC-3 prostate and with SN12C renal was above 100 µM each time.
For the molecule `COc1cc(CCCOC(=O)/C=C/c2ccc(O)c(O)c2)cc(O)c1O`, the TGI is above 100 µM in the assay with 786-0 renal; above 100 µM in the assay with A498 renal; above 100 µM in the assay with HCT-15 colon; 98.7 µM with HT29 colon; 45.6 µM in the assay on LOX IMVI melanoma; above 100 µM with M14 melanoma. The TGI is 69.4 µM in the assay on MCF7 breast; 91.7 µM with MDA-MB-231 breast; above 100 µM in the assay with MOLT-4 leukemia; above 100 µM with PC-3 prostate; above 100 µM in the assay on SN12C renal.
For the molecule `O=C/C(=C(/Br)I)c1ccccc1`, the TGI turned out to be 5.38 µM in the assay with 786-0 renal; 33.9 µM in the assay with A498 renal; 5.65 µM with HCT-15 colon; 5.29 µM in the assay with HT29 colon; 10.9 µM in the assay with LOX IMVI melanoma; 4.01 µM in the assay with M14 melanoma. Further, the TGI in the assay with MCF7 breast came to 2.57 µM; in the assay on MDA-MB-231 breast it was 7.44 µM; with MOLT-4 leukemia, 4.28 µM; with PC-3 prostate, 18.2 µM; in the assay on SN12C renal it was 3.64 µM.
As to `CC1=C2c3c(C)ccc4ccc(C)c(c34)C2(O)C(C)C1=O` (centres undefined), the total growth inhibition concentration (TGI) in the assay on 786-0 renal, in the assay with A498 renal, in the assay with HCT-15 colon, with HT29 colon, in the assay with LOX IMVI melanoma and in the assay with M14 melanoma was above 100 µM in each case. Further, the TGI in the assay with MCF7 breast, in the assay on MDA-MB-231 breast, in the assay with MOLT-4 leukemia, with PC-3 prostate and in the assay with SN12C renal was above 100 µM in each case.
As to `CN(C)CCNc1ccc2c(=O)n(CCN(C)C)c(=O)n3c4ccc([N+](=O)[O-])cc4c(=O)c1c23`, the total growth inhibition concentration (TGI) in the assay with 786-0 renal was 2.74 µM; in the assay on A498 renal it was 5.55 µM; in the assay with HCT-15 colon, 1.49 µM; in the assay on HT29 colon, 0.658 µM; in the assay with LOX IMVI melanoma, 1.1 µM; in the assay on M14 melanoma it was 2.38 µM. Moreover, the TGI is 1.04 µM in the assay with MCF7 breast; 2.21 µM in the assay on MDA-MB-231 breast; 0.0685 µM in the assay with MOLT-4 leukemia; 2.43 µM with PC-3 prostate; 1.56 µM in the assay with SN12C renal.
As to `Cc1cn(C2CCC(/C=N\O)O2)c(=O)[nH]c1=O` (centres undefined), the TGI with 786-0 renal, in the assay on A498 renal, in the assay on HCT-15 colon, in the assay on HT29 colon, in the assay with LOX IMVI melanoma and in the assay with M14 melanoma was above 100 µM in each case. Besides, the concentration for total growth inhibition (TGI) with MCF7 breast, in the assay with MDA-MB-231 breast, in the assay on MOLT-4 leukemia, with PC-3 prostate and in the assay on SN12C renal was above 100 µM in each case.
Regarding `CC(C)(C)N(Cc1ccc2c(c1)OCO2)C(=O)/C=C\S(=O)c1ccccc1` (centres undefined), the TGI came to 6.07 µM with 786-0 renal; 21.4 µM in the assay with A498 renal; 13.2 µM in the assay on HCT-15 colon; 12.9 µM with HT29 colon; 7.51 µM with LOX IMVI melanoma; 8.2 µM with M14 melanoma. Further, the concentration for total growth inhibition (TGI) in the assay with MCF7 breast was 14.2 µM; with MDA-MB-231 breast it was 9.75 µM; in the assay with MOLT-4 leukemia it was above 45.4 µM; with PC-3 prostate, 9.71 µM; with SN12C renal, 9.03 µM.
For the molecule `CC1=C2C(=O)[C@H]3[C@@H](CC=C4C[C@@H](O)CC[C@@]43C)[C@@H]2CC[C@]12O[C@@H]1C[C@H](C)CN[C@H]1[C@H]2C`, the TGI in the assay on 786-0 renal was above 57.5 µM; with A498 renal, above 57.9 µM; with HCT-15 colon it was above 81.3 µM; with HT29 colon it was above 100 µM; in the assay on LOX IMVI melanoma, above 58.2 µM; in the assay with M14 melanoma, above 60.4 µM. The concentration for total growth inhibition (TGI) in the assay on MCF7 breast was above 100 µM; in the assay on MDA-MB-231 breast, above 100 µM; in the assay with MOLT-4 leukemia, above 100 µM; with PC-3 prostate it was above 100 µM; in the assay with SN12C renal, above 60.6 µM.
Consider `CC(C)(C)c1ccc(-c2nc3ccc([N+](=O)[O-])cc3c(=O)o2)cc1`, for which the TGI with 786-0 renal was above 100 µM; with A498 renal, 73.9 µM; in the assay with HCT-15 colon, 73.4 µM; in the assay with HT29 colon it was 69.4 µM; in the assay on LOX IMVI melanoma, 29.9 µM; in the assay on M14 melanoma, above 100 µM. Also, the TGI with MCF7 breast is 89.2 µM; with MDA-MB-231 breast it was 66 µM; in the assay on MOLT-4 leukemia, 46.4 µM; in the assay with PC-3 prostate, 72.5 µM; with SN12C renal, above 100 µM.
Take `Cc1ccc(S(=O)(=O)NN=C2CCCCCCCCCCC2)cc1`: the TGI with 786-0 renal, with A498 renal, in the assay with HCT-15 colon, in the assay on HT29 colon, with LOX IMVI melanoma and in the assay on M14 melanoma was above 100 µM in each case. Further, the TGI with MCF7 breast, in the assay on MDA-MB-231 breast, in the assay with MOLT-4 leukemia, in the assay with PC-3 prostate and in the assay on SN12C renal was above 100 µM throughout.
In the case of `COc1ccc(-c2csc(=Nc3ccccc3)n2CC(O)c2ccc([N+](=O)[O-])cc2)cc1` (centres undefined), the TGI in the assay on 786-0 renal, with A498 renal, with HCT-15 colon, in the assay with HT29 colon, in the assay on LOX IMVI melanoma and with M14 melanoma was above 100 µM in each case. The TGI with MCF7 breast, with MDA-MB-231 breast, in the assay with MOLT-4 leukemia, in the assay on PC-3 prostate and in the assay on SN12C renal was above 100 µM in each case.
As for `CC1CC[C@@]2(OC1)OC1C[C@H]3[C@@H]4C/C(=N\N(C)C)[C@@]5(O)CC(O)CC[C@]5(C)[C@H]4CC[C@]3(C)C1[C@@H]2C` (some centres undefined), the TGI in the assay with 786-0 renal is above 100 µM; with A498 renal, above 100 µM; in the assay on HCT-15 colon it was above 100 µM; with HT29 colon, 49.2 µM; in the assay with LOX IMVI melanoma, above 100 µM; in the assay with M14 melanoma, above 100 µM. For the same molecule, the total growth inhibition concentration (TGI) with MCF7 breast, in the assay on MDA-MB-231 breast, in the assay with MOLT-4 leukemia, in the assay on PC-3 prostate and with SN12C renal was above 100 µM throughout.
With `O=C(O)C1CCCN1Cc1cc2ccccc2c2ccccc12` (centres undefined), the TGI with 786-0 renal, with A498 renal, in the assay on HCT-15 colon, in the assay with HT29 colon, with LOX IMVI melanoma and in the assay on M14 melanoma was above 100 µM each time. In addition, the TGI in the assay with MCF7 breast, in the assay on MDA-MB-231 breast, with MOLT-4 leukemia, in the assay on PC-3 prostate and in the assay on SN12C renal was above 100 µM throughout.
Take `COc1ccc(N=C(C)c2ccncc2)cc1`: the TGI in the assay with 786-0 renal, with A498 renal, with HCT-15 colon, in the assay on HT29 colon, in the assay on LOX IMVI melanoma and in the assay with M14 melanoma was above 100 µM in each case. The TGI in the assay on MCF7 breast, in the assay with MDA-MB-231 breast, with MOLT-4 leukemia, with PC-3 prostate and in the assay with SN12C renal was above 100 µM throughout.
